Measured values published in patent US20260159512A1, “BCAT2 INHIBITORS” (AGIOS PHARMACEUTICALS, INC., priority 2021, published 2026).

Key:
[1] = target: T1, BCAT2 (Homo sapiens, UniProt O15382); assay: BCAT2 in vitro enzyme inhibition assay (resazurin/diaphorase-coupled fluorescence); format: biochemical; details: average where tested multiple times
T1 sequence (O15382 28-392): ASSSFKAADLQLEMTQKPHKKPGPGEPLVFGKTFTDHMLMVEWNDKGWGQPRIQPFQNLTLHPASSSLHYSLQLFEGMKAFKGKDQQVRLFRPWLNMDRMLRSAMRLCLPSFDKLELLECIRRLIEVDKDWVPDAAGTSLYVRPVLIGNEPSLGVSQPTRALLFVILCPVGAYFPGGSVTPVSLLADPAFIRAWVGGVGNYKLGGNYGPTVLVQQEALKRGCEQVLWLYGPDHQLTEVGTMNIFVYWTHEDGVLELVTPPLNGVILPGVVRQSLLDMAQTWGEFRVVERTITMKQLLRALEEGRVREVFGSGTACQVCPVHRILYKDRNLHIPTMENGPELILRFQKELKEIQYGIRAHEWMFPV
Method in brief: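 Coupled fluorescence readout: glutamate formed from L-leucine/α-ketoglutarate transamination drives GDH/NAD/diaphorase reduction of resazurin (Ex 540/Em 590). Human BCAT2 was first exposed 1 h at room temperature to compound, top final 100 μM in 3-fold, 10-point series; substrate reaction ran 1 h before SDS quench, in technical duplicate with DMSO max and enzyme-free min controls.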

[2] = target: T1, BCAT2; assay: BCAT2 in vitro cell inhibition using engineered A549 cells (KMV cell assay, 13C6-KMV by LC-MS/MS); format: cell-based; set-up: The result was an engineered A549 cell line that expressed endogenous BCAT2; endogenous in cells; host or cells: A549 cells with MUT and BCAT1 knocked out by CRISPR/CAS9; key to BCAT2 Cell Inhibition: A: less than or equal to 0.100 μM; B: greater than 0.100 and less than or equal to 0.500 μM; C: greater than 0.500 and less than or equal to 1.000 μM; d: greater than 1.000 μM; E: no fit; details: average where tested multiple times

Row | SMILES | IC50 [1] [nM] | BCAT2 Cell Inhibition [2] | IC50 [2] [nM]
1 | CC(C)Cc1nc2cnc(-c3ccccc3CO)cc2n1[C@@H]1CCC[C@H](NC(=O)c2ncc(Cl)s2)C1 [Example 205, 5-chloro-N-((1S,3R)-3-(6-(2-(hydroxymethyl)phenyl)-2-isobutyl-1H-imidazo[4,5-c]pyridin-1-yl)cyclohexyl)thiazole-2-carboxamide] | > 1000 | E | –
2 | CC(C)Cc1nc2cnc(N3CCC[C@@H]3C#N)cc2n1[C@@H]1CCC[C@H](NC(=O)c2ncc(Cl)s2)C1 [Example 310, 5-chloro-N-((1S,3R)-3-(6-((R)-2-cyanopyrrolidin-1-yl)-2-isobutyl-1H-imidazo[4,5-c]pyridin-1-yl)cyclohexyl)thiazole-2-carboxamide] | > 1000 | E | –
3 | CC(C)Cc1nc2cnc(-c3cccc(F)n3)cc2n1[C@H]1CCC[C@@H](NC(=O)c2ncc(Cl)s2)[C@@H]1O [Example 208, 5-chloro-N-((1R,2S,3S)-3-(6-(6-fluoropyridin-2-yl)-2-isobutyl-1H-imidazo[4,5-c]pyridin-1-yl)-2-hydroxycyclohexyl)thiazole-2-carboxamide] | > 1000 | E | –
4 | COC[C@H]1CCCN1c1cc2c(cn1)nc(-c1ccccc1F)n2[C@@H]1CCC[C@H](NC(=O)c2ncc(Cl)s2)C1 [Example 198, 5-chloro-N-((1S,3R)-3-(2-(2-fluorophenyl)-6-((R)-2-(methoxymethyl)pyrrolidin-1-yl)-1H-imidazo[4,5-c]pyridin-1-yl)cyclohexyl)thiazole-2-carboxamide] | > 1000 | – | > 1000
5 | CO[C@@H]1C[C@@H](NC(=O)c2ncc(Cl)s2)C[C@@H](n2c(CC(C)C)nc3cnc(-c4ncc(C)o4)cc32)C1 (single isomer, unassigned) [Example 428] | > 1000 | E | –
6 | CC(C)(C)Cc1nc2cnc(-n3nccn3)cc2n1[C@H]1CCC[C@@H](NC(=O)c2ccc(Cl)s2)[C@@H]1O [Example 388, 5-chloro-N-((1R,2S,3S)-2-hydroxy-3-(2-neopentyl-6-(2H-1,2,3-triazol-2-yl)-1H-imidazo[4,5-c]pyridin-1-yl)cyclohexyl)thiophene-2-carboxamide] | > 1000 | E | –
7 | CC(C)Cc1nc2cnc(-c3cc(C(F)(F)F)n[nH]3)cc2n1[C@H]1CCC[C@@H](NC(=O)c2ncc(Cl)s2)[C@@H]1O [Example 217, 5-chloro-N-((1R,2S,3S)-2-hydroxy-3-(2-isobutyl-6-(3-(trifluoromethyl)-1H-pyrazol-5-yl)-1H-imidazo[4,5-c]pyridin-1-yl)cyclohexyl)thiazole-2-carboxamide] | > 1000 | E | –
8 | CO[C@H]1C[C@@H](NC(=O)c2ncc(Cl)s2)C[C@@H](n2c(CC(C)C)nc3cnc(-n4nccn4)cc32)C1 (single isomer, unassigned) [Example 440] | 500 to 1000 | E | –
9 | CC(C)Oc1nc2cnc(-n3ccnn3)cc2n1[C@@H]1CCC[C@H](NC(=O)c2ncc(C(F)F)s2)C1 [Example 97, 5-(difluoromethyl)-N-((1S,3R)-3-(2-isopropoxy-6-(1H-1,2,3-triazol-1-yl)-1H-imidazo[4,5-c]pyridin-1-yl)cyclohexyl)thiazole-2-carboxamide] | > 1000 | E | –
10 | CO[C@@H]1C[C@H](NC(=O)c2ncc(Cl)s2)C[C@H](n2c(CC(C)C)nc3cnc(-c4nc[nH]n4)cc32)C1 (stereo in doubt) [Example 431, 5-chloro-N-((1R,3S,5R)-3-(2-isobutyl-6-(1H-1,2,4-triazol-3-yl)-1H-imidazo[4,5-c]pyridin-1-yl)-5-methoxycyclohexyl)thiazole-2-carboxamide] | 500 to 1000 | – | > 1000
11 | CC(C)Cc1nc2cnc(N3CCC[C@H]3C(N)=O)cc2n1[C@@H]1CCC[C@H](NC(=O)c2ncc(Cl)s2)C1 [Example 307, N-((1S,3R)-3-(6-((S)-2-carbamoylpyrrolidin-1-yl)-2-isobutyl-1H-imidazo[4,5-c]pyridin-1-yl)cyclohexyl)-5-chlorothiazole-2-carboxamide] | > 1000 | E | –

Other lines, results leading:

Row | IC50 [1] [nM] | BCAT2 Cell Inhibition [2] | IC50 [2] [nM] | SMILES
12 | 500 to 1000 | – | > 1000 | O=C(N[C@H]1CCC[C@@H](n2c(-c3ccccc3F)nc3cnc(-c4nncn4C(F)F)cc32)C1)c1ncc(Cl)s1 [Example 377, 5-chloro-N-((1S,3R)-3-(6-(4-(difluoromethyl)-4H-1,2,4-triazol-3-yl)-2-(2-fluorophenyl)-1H-imidazo[4,5-c]pyridin-1-yl)cyclohexyl)thiazole-2-carboxamide]
13 | ≤ 100 | – | ≤ 100 | O=C(N[C@H]1CCC[C@@H](n2c(-c3ccccc3F)nc3ccc(-c4ncccn4)cc32)[C@@H]1O)c1ncc(Cl)s1 [Example 466, 5-chloro-N-((1S,2R,3R)-3-(2-(2-fluorophenyl)-6-(pyrimidin-2-yl)-1H-benzo[d]imidazol-1-yl)-2-hydroxycyclohexyl)thiazole-2-carboxamide]
14 | 500 to 1000 | E | – | COc1cccc(F)c1-c1nc2cnc(-c3nc[nH]n3)cc2n1[C@H]1CCCC[C@@H](NC(=O)c2ccc(Cl)s2)[C@@H]1O [Example 406, 5-chloro-N-((1R,2S,3S)-3-(2-(2-fluoro-6-methoxyphenyl)-6-(1H-1,2,4-triazol-3-yl)-1H-imidazo[4,5-c]pyridin-1-yl)-2-hydroxycycloheptyl)thiophene-2-carboxamide]
15 | 500 to 1000 | E | – | O=C(N[C@H]1CCC[C@@H](n2c(-c3ccccc3F)nc3cnc(-c4ncnn4C(F)F)cc32)C1)c1ncc(Cl)s1 [Example 376, 5-chloro-N-((1S,3R)-3-(6-(1-(difluoromethyl)-1H-1,2,4-triazol-5-yl)-2-(2-fluorophenyl)-1H-imidazo[4,5-c]pyridin-1-yl)cyclohexyl)thiazole-2-carboxamide]
16 | ≤ 100 | – | ≤ 100 | O=C(N[C@H]1CCC[C@@H](n2c(-c3ccccc3F)nc3ccc(-c4ncco4)cc32)[C@@H]1O)c1ncc(Cl)s1 [Example 465, 5-chloro-N-((1S,2R,3R)-3-(2-(2-fluorophenyl)-6-(oxazol-2-yl)-1H-benzo[d]imidazol-1-yl)-2-hydroxycyclohexyl)thiazole-2-carboxamide]
17 | ≤ 100 | – | 500 to 1000 | COC(=O)N1C[C@@H](NC(=O)c2ccc(Cl)s2)C[C@@H](n2c(-c3ccccc3F)nc3cnc(-c4nc[nH]n4)cc32)C1 [Example 463, methyl (3S,5R)-3-(5-chlorothiophene-2-carboxamido)-5-(2-(2-fluorophenyl)-6-(1H-1,2,4-triazol-3-yl)-1H-imidazo[4,5-c]pyridin-1-yl)piperidine-1-carboxylate]
18 | 100 to 500 | – | > 1000 | CO[C@@H]1C[C@@H](NC(=O)c2ncc(Cl)s2)C[C@@H](n2c(-c3ccccc3F)nc3cnc(-c4nc[nH]n4)cc32)C1 (single isomer, unassigned) [Example 219]
19 | ≤ 100 | – | ≤ 100 | CO[C@@H]1C[C@@H](NC(=O)c2ncc(Cl)s2)C[C@@H](n2c(-c3ccccc3C#N)nc3cnc(-c4nc[nH]n4)cc32)C1 (stereo in doubt) [Example 446, 5-chloro-N-((1S,3R,5R)-3-(2-(2-cyanophenyl)-6-(1H-1,2,4-triazol-3-yl)-1H-imidazo[4,5-c]pyridin-1-yl)-5-methoxycyclohexyl)thiazole-2-carboxamide]
